The text below walks through data of BindingDB's records for patent WO2025049746 (Eikon Therapeutics, 2025).

The target in assay [1] is Bifunctional 3'-5' exonuclease/ATP-dependent helicase WRN (Homo sapiens, UniProt Q14191). Nature of the assay: ADP-Glo Kinase Assay. The procedure:
ATPase activity was measured using the ADP-Glo Kinase Assay following the manufacturers recommended protocol.
In general terms: ADP-Glo first removes unused ATP, then detects ADP through luciferase.

For assay [2], the target named is T1, Bifunctional 3'-5' exonuclease/ATP-dependent helicase WRN [480-1251] (UniProt Q14191).
T1 construct: 480-1251
T1 sequence (Q14191 480-1251): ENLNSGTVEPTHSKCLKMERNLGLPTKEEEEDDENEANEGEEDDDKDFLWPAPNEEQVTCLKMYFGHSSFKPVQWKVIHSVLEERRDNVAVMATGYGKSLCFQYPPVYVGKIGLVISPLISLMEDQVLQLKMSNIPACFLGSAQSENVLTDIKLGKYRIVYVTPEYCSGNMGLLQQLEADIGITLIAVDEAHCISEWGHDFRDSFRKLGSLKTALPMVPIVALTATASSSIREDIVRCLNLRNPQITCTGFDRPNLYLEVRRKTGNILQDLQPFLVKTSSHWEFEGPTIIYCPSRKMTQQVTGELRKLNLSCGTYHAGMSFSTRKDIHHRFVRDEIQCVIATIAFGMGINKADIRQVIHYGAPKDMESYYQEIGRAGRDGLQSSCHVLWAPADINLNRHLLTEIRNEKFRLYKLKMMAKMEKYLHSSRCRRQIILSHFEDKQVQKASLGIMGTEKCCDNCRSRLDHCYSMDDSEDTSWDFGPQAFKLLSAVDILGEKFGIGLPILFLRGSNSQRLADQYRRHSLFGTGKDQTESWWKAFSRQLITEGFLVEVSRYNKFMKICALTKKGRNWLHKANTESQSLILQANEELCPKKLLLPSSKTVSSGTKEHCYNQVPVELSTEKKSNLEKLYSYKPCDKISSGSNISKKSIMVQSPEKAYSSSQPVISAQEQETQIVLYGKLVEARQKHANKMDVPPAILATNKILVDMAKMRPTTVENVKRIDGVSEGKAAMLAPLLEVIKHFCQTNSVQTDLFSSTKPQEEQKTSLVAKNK
The assay can be described thus: Biochemical Activity Assays.

Molecules are shown by their SMILES.

Sequence of Bifunctional 3'-5' exonuclease/ATP-dependent helicase WRN (Q14191 whole entry): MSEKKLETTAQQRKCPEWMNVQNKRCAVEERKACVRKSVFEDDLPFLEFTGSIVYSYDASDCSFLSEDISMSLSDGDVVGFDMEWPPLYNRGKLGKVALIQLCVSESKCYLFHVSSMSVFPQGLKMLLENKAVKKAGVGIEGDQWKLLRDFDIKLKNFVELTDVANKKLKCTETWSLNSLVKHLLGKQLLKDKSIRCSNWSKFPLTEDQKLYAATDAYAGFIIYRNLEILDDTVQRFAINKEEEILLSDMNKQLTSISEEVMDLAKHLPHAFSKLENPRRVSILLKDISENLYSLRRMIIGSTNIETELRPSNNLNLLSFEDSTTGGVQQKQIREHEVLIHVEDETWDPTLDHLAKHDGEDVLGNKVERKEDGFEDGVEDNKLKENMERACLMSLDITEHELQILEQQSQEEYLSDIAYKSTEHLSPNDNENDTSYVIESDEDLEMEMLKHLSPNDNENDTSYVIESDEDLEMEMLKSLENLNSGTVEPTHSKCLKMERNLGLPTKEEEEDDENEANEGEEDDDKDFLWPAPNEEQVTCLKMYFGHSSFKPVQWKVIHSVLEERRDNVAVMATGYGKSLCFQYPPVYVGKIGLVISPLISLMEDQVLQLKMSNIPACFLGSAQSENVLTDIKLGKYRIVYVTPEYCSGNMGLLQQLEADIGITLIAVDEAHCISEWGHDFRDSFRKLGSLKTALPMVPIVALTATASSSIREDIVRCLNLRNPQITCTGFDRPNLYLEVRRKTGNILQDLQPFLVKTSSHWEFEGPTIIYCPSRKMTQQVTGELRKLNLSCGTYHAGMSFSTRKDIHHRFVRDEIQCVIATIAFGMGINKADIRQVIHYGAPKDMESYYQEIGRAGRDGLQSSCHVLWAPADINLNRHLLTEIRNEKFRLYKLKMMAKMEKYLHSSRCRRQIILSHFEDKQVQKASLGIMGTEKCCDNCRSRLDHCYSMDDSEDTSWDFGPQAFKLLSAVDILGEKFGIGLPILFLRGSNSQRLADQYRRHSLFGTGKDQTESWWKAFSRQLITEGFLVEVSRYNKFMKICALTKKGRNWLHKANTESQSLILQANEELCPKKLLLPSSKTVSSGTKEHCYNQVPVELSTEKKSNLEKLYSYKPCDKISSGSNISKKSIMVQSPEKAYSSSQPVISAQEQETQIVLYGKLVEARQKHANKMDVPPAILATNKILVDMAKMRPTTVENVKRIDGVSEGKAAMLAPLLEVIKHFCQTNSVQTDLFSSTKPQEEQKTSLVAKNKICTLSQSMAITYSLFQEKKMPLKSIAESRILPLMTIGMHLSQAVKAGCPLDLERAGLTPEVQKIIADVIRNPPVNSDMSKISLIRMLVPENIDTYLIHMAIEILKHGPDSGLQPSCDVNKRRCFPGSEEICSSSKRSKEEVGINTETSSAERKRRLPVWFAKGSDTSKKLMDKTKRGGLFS

Regarding `CCc1c(N2CCN(C(=O)c3ncnc(C)c3O)CC2)c(=O)n2nc(-c3cnc4c(c3)CCO4)nc2n1CC(=O)Nc1ccc(C(F)(F)F)cc1Cl` [WO2025049746, Example 157], the IC50 in assay [1] was determined as 0.051 µM; in assay [2], 0.037 µM.
As for `CCc1c(N2CCN(C(=O)c3ncnc(C)c3O)CC2)c(=O)n2nc(-c3cc(F)c4nn(C)cc4c3)nc2n1CC(=O)Nc1ccc(C(F)(F)F)cc1Cl` [WO2025049746, Example 287], the values for the IC50 in assay [1] and in assay [2] were 0.028 µM and 0.029 µM, respectively.
As for `CCc1c(N2CCN(C(=O)c3ncnc(C)c3O)CC2)c(=O)n2nc(-c3ccc4c(c3)CC(C)(C)N4C(C)=O)nc2n1CC(=O)Nc1ccc(C(F)(F)F)cc1Cl` [WO2025049746, Example 296], the IC50 in assay [1] came to 0.036 µM; in assay [2] it was 0.038 µM.
On the same counts, the results for `CCc1c(N2CCN(C(=O)c3ncnc(C)c3O)CC2)c(=O)n2nc(-c3cnc4c(ccn4C)c3)nc2n1CC(=O)Nc1ccc(C(F)(F)F)cc1Cl` [WO2025049746, Example 252] are 0.019 µM and 0.021 µM.
In the case of `CCc1c(N2CCN(C(=O)c3ncnc(C)c3O)CC2)c(=O)n2nc(-c3cc4cnn(C)c4cc3C)nc2n1CC(=O)Nc1ccc(C(F)(F)F)cc1Cl` [WO2025049746, Example 311], the 50% inhibitory concentration (IC50) in assay [1] was 0.05 µM; in assay [2], 0.047 µM.
Consider `CCc1c(N2CCN(C(=O)c3ncnc(C)c3O)CC2)c(=O)n2nc(-c3ccc4c(c3)COC4)nc2n1CC(=O)Nc1c(Cl)cc(C(F)(F)F)c2c1CC2` [WO2025049746, Example 384], for which the values for the half-maximal inhibitory concentration (IC50) in assay [1] and in assay [2] were 0.035 µM and 0.029 µM, respectively.
In the same order, the values of `CCc1c(N2CCN(C(=O)c3nc4c(cc3O)CCC4)CC2)c(=O)n2nc(-c3ccc4c(c3)COC4)nc2n1CC(=O)Nc1ccc(C(F)(F)F)cc1Cl` [WO2025049746, Example 417] are 0.106 µM and 0.084 µM.
As to `CCc1c(N2CCN(C(=O)c3ncnc(C)c3O)CC2)c(=O)n2nc(-c3ccc4nn(C5COC5)cc4c3)nc2n1CC(=O)Nc1ccc(C(F)(F)F)cc1Cl` [WO2025049746, Example 332], the results for the IC50 in assay [1] and in assay [2] were 0.044 µM and 0.045 µM, respectively.
In the case of `CCc1c(N2CCN(C(=O)c3ncnc(C)c3O)CC2)c(=O)n2nc(-c3ccc4c(c3)CCO4)nc2n1CC(=O)Nc1c(Cl)cc(C(F)(F)F)c2scnc12` [WO2025049746, Example 428], the half-maximal inhibitory concentration (IC50) in assay [1] turned out to be 0.045 µM; in assay [2], 0.038 µM.
On the same counts, the results for `CCc1c(N2CCN(C(=O)c3ncnc(C)c3O)CC2)c(=O)n2nc(-c3cc4n(n3)CCC4)nc2n1CC(=O)Nc1ccc(C(F)(F)F)cc1Cl` [WO2025049746, Example 183] are 0.052 µM and 0.046 µM.
In the same order, the values of `Cc1ncnc(C(=O)N2CCN(c3c(OC(F)F)n(CC(=O)Nc4ccc(C(F)(F)F)cc4Cl)c4nc(-c5ccc6c(c5)COC6)nn4c3=O)CC2)c1O` [WO2025049746, Example 375] are 1.14 µM and 4.9 µM.
On to `CCc1c(N2CCN(C(=O)C(C)n3cncn3)CC2)c(=O)n2nc(C3=CCOCC3)nc2n1CC(=O)Nc1ccc(C(F)(F)F)cc1Cl` (stereo unspecified) [WO2025049746, Example 62], for which the IC50 is 0.413 µM in assay [1] and 0.133 µM in assay [2].
In the same order, the values of `CCc1c(N2CCN(C(=O)c3ncnc(C)c3O)CC2)c(=O)n2nc(-c3ccc4c(c3)nnn4C)nc2n1CC(=O)Nc1ccc(C(F)(F)F)cc1Cl` [WO2025049746, Example 314] are 0.032 µM and 0.033 µM.
On the same counts, the results for `CCc1c(N2CCN(C(=O)c3ncnc(C)c3O)CC2)c(=O)n2nc(-c3cnc4nc(C)oc4c3)nc2n1CC(=O)Nc1ccc(C(F)(F)F)cc1Cl` [WO2025049746, Example 282] are 0.047 µM and 0.053 µM.
`CCc1c(N2CCN(C(=O)c3cc(N4CCN(C)CC4)nc(C)c3O)CC2)c(=O)n2nc(-c3ccc4c(c3)COC4)nc2n1CC(=O)Nc1ccc(C(F)(F)F)cc1Cl` [WO2025049746, Example 450]: the figures for the IC50 in assay [1] and in assay [2] were 0.108 µM and 0.103 µM, respectively.
On the same counts, the results for `Cc1ncnc(C(=O)N2CCN(c3c4n(c5nc(-c6ccc7c(c6)COC7(C)C)nn5c3=O)[C@@H](C(=O)Nc3ccc(C(F)(F)F)cc3Cl)C[C@H]4C)CC2)c1O` [WO2025049746, Example 470] are 0.0324 µM and 0.0346 µM.
In the same order, the values of `CCc1c(N2CCN(C(=O)c3ncnc(C)c3O)CC2)c(=O)n2nc(-c3ccc(NC(=O)NC)cc3)nc2n1CC(=O)Nc1ccc(C(F)(F)F)cc1Cl` [WO2025049746, Example 331] are 0.02 µM and 0.026 µM.
Take `CCc1c(N2CCN(C(=O)c3nc4c(cc3O)CCOC4)CC2)c(=O)n2nc(-c3ccc4c(c3)COC4)nc2n1CC(=O)Nc1ccc(C(F)(F)F)cc1Cl` [WO2025049746, Example 441]: the half-inhibitory concentration (IC50) stood at 0.068 µM in assay [1] and 0.057 µM in assay [2].
Regarding `CCc1c(N2CCN(C(=O)c3ncnc(C)c3O)CC2)c(=O)n2nc(-c3ccc4c(c3)NC(=O)C4)nc2n1CC(=O)Nc1ccc(C(F)(F)F)cc1Cl` [WO2025049746, Example 309], the IC50 is 0.032 µM in assay [1] and 0.031 µM in assay [2].
On the same counts, the results for `CCc1c(N2CCN(C(=O)c3ncnc(C)c3O)CC2)c(=O)n2nc(-c3ccc4c(c3)CCOC4)nc2n1CC(=O)Nc1ccc(SC(F)(F)F)cc1` [WO2025049746, Example 393] are 0.506 µM and 0.419 µM.
For `Cc1ncnc(C(=O)N2CCN(c3c4n(c5nc(-c6ccc7c(c6)COC7(C)C)nn5c3=O)[C@@H](C(=O)Nc3ccc(C(F)(F)F)cc3Cl)C[C@H]4C)[C@H]3CC[C@@H]32)c1O` [WO2025049746, Example 465], the IC50 in assay [1] stood at 0.0291 µM; in assay [2], 0.0319 µM.
Regarding `CCc1c(N2CCN(C(=O)c3ncnc(C)c3O)CC2)c(=O)n2nc(-c3cc4c(cc3F)COC4)nc2n1CC(=O)Nc1ccc(C(F)(F)F)cc1Cl` [WO2025049746, Example 201], the results for the IC50 in assay [1] and in assay [2] were 0.025 µM and 0.021 µM, respectively.
In the same order, the values of `CCc1c(N2CCN(C(=O)c3ncnc(C)c3O)CC2)c(=O)n2nc(-c3ccc4c(c3)CCOC4)nc2n1CC(=O)Nc1ccc(C(F)(F)F)c2c1CC2` [WO2025049746, Example 98] are 0.0308 µM and 0.0239 µM.
In the case of `CCc1c(N2CCN(C(=O)c3ncnc(C)c3O)CC2)c(=O)n2nc(-c3ccc4c(c3)COC4)nc2n1CC(=O)Nc1cc(C2CC2)c(C(F)(F)F)cc1Cl` [WO2025049746, Example 418], the results for the IC50 in assay [1] and in assay [2] were 0.066 µM and 0.057 µM, respectively.
On the same counts, the results for `CCc1c(N2CCN(C(=O)c3ncnc(C)c3O)CC2)c(=O)n2nc(-c3cnc4cn(C)nc4c3)nc2n1CC(=O)Nc1ccc(C(F)(F)F)cc1Cl` [WO2025049746, Example 300] are 0.068 µM and 0.057 µM.
On the same counts, the results for `CCc1c(N2CCN(C(=O)c3ncnc(C)c3O)CC2)c(=O)n2nc(N3CCC4(COC4)C3)nc2n1CC(=O)Nc1ccc(C(F)(F)F)cc1Cl` [WO2025049746, Example 29] are 0.0739 µM and 0.0632 µM.
On the same counts, the results for `CCc1c(N2CCN(C(=O)c3ncnc(C)c3O)CC2)c(=O)n2nc(-c3ccc4nc(C)cn4c3)nc2n1CC(=O)Nc1ccc(C(F)(F)F)cc1Cl` [WO2025049746, Example 255] are 0.023 µM and 0.024 µM.
As for `CCc1c(N2CCN(C(=O)c3ncnc(C)c3O)CC2)c(=O)n2nc(C3CC3)nc2n1CC(=O)Nc1ccc(C(F)(F)F)cc1C` [WO2025049746, Example 78], the results for the IC50 in assay [1] and in assay [2] were 0.194 µM and 0.0701 µM, respectively.

What is called IC50 is the concentration that inhibits the measured activity by half. Read a low IC50 as inhibition by little substance.
